Results on 1 molecule are retold here after article PMC6232370, “Metabolism and Bioactivation of Corynoline With Characterization of the Glutathione/Cysteine Conjugate and Evaluation of Its Hepatotoxicity in Mice” (Frontiers in Pharmacology, 2018).

The test system of data set [1] is BALB/c male mice. Kind of data set: Hepatotoxicity study in mice. The class given is in vivo. Here is the method:
Thirty-six BALB/c male mice were randomly divided into four groups (nine animals per group) including control group, low (125 mg/kg), middle (250 mg/kg), and high (500 mg/kg) three dosages group. CRL was dissolved firstly in DMSO and then prepared in 0.5% carboxymethyl cellulose sodium (CMC-Na) to make a suspension of 10, 20, and 30 mg/mL and the final concentration of DMSO in the suspension was no more than 5%. CRL was administered to the mice in different groups through oral gavage. Mice in control group were given equal volume 0.5% CMC-Na (contained 5% DMSO) solution with high dosage group. Blood samples were drawn from the orbital vein using cannulation under anesthesia at 24 h after oral administration. After centrifugation at 2,000 g for 15 min, the serum samples were stored at −20°C until analysis. Then mice were euthanized by decapitation after blood collection. Samples of liver were obtained and one part of which was fixed in 10% formaldehyde for observing histological change with optical microscope. The content of ALT and AST in mice serum was detected according the operation instruction of the kit.

Data set [2] is described as follows: Tissue distribution of CRL in mice. The data set is classed as in vivo. Conditions: 250 mg/kg intragastric. Here is the method: Thirty BALB/c male mice were fasted overnight but allowed access to water before drug administration. Five groups of mice (six mice per group) were intragastric administered a single dose of 250 mg/kg CRL. The mice in five groups were euthanized by decapitation at pre-dose, 0.5, 2, 4, and 8 h after dosing, respectively. Tissues including heart, liver, spleen, lung, kidney, and brain were dissected and washed with saline, then were blotted with filter paper and weighed accurately. The tissue samples were homogenized in ice-cold saline (1:3, w/v, g/mL). These tissue homogenates were then stored at −20°C and allowed to thaw at room temperature and vortex-mixed before processing. A 200 μL tissue sample was mixed with 5 μL IS solution (donepezil, 500 ng/mL). The mixture was deproteinized with 800 μL of acetonitrile, vortexed for 5 min, and then centrifuged at 17,000 × g for 10 min. An aliquot of 5 μL supernatant was then used for quantifying the content of CRL in each tissue by the LC-MS/MS.

Data set [3] deals with human A549, SK-OV-3, SK-MEL-2, and HCT15 tumor cells. Details: method as in Choi et al. (2007). The conditions noted are these: ref Choi et al. (2007), read-out: 50% growth inhibition values; cited from earlier work.
Setting [4] is: mice, 24 h after oral administration of 125, 250, and 500 mg/kg, P > 0.05.

For `CN1Cc2c(ccc3c2OCO3)[C@@]2(C)[C@@H](O)Cc3cc4c(cc3[C@@H]12)OCO4` [CRL, Corynoline], in data set [1] (mice, 125, 250, and 500 mg/kg oral, 24 h), the “Histopathological examination of the liver” value is “no pathological changes”. In data set [1] (setting [4]), the “ALT in serum and livers compared with the control group” value was “not significantly different”; the “AST in serum and livers compared with the control group” value is reported as “not significantly different”. Further, the “Abnormal behaviors compared with control group” value in data set [1] (mice, drug treatment groups 125–500 mg/kg oral, at about 10 min after administration, more pronounced with increasing dosage) was “lying on the bedding and shivering”. Also, in data set [1] (mice, drug treatment groups 125–500 mg/kg oral, more pronounced with increasing dosage), the “Body temperature of most mice” value is listed as “lower than normal”. Also, the “Hepatotoxicity / acute liver injury” value in data set [1] (mice, experimental dosage 125–500 mg/kg oral) was “no obvious hepatotoxicity”. For the same molecule, in data set [1] (mouse, in vivo), the “Dead mice after drug administration (all dosage groups)” value was “three of them were dead”, the “Dead mice in high dosage group” value is “two mice” and the “Dead mice in middle dosage group” value is given as “one mouse”. The “Blood–brain barrier passage” value in data set [2] is “could traverse the blood–brain barrier”. For the same molecule, in data set [2] (single dose, mean ± SD), the “Highest concentration level in brain” value was 40.53 ± 20.50 µg/g, the “Highest concentration level in kidney” value came out at 68.73 ± 46.89 µg/g, the “Highest concentration level in liver” value is 92.91 ± 65.11 µg/g and the “Highest concentration level in lung” value came out at 27.27 ± 22.17 µg/g. Moreover, the “Highest concentration level in spleen” value in data set [2] (single dose, mean ± SD) was found to be 25.22 ± 18.67 µg/g. Moreover, the concentration at 2 h in data set [2] (male, BALB/c, mouse, plasma, oral, at 2 h post dosing, mean ± SD) came to 18400 ± 14200 ng/mL. The Tmax in data set [2] (male, BALB/c, mouse, tissues (heart, liver, spleen, lung, kidney, brain), po, tissues, post dosing, read-out: Time to reach the maximum concentration) worked out at 2 h. Besides, the IC50 in data set [3] was 5.27 to 6.14 µM.
